Assay: xn = mol fraction of the nth substance listed

C1CCC2=NCCCN2CC1 + O=S(=O)([N-]S(=O)(=O)C(F)(F)F)C(F)(F)F.[Li+]
101 kPa, frequency 0 MHz, x1 = 0.8
Details	electrical conductivity [S/m]
328.15 K	0.00259
338.15 K	0.00474
348.15 K	0.0114

101 kPa, x1 = 0.8
Details	viscosity [mPa·s]
328.15 K	3336
348.15 K	358

O=S(=O)([N-]S(=O)(=O)C(F)(F)F)C(F)(F)F.[Na+] + O=S(=O)([N-]S(=O)(=O)C(F)(F)F)C(F)(F)F.[Li+]
100 kPa, frequency 1 MHz, x2 = 0.67
Details	electrical conductivity [S/m]
473.6 K	0.114
483.1 K	0.156
492.1 K	0.205
502.4 K	0.269
512.5 K	0.342
523.2 K	0.435
531.5 K	0.533
543.3 K	0.635
552 K	0.753
561.2 K	0.91
571 K	1.02

100 kPa, x2 = 0.67
Details	viscosity [mPa·s]
473.9 K	411
483.1 K	267
492.6 K	203
502.5 K	146
512.8 K	106
523.6 K	78.1
531.9 K	60.7
543.5 K	46.8
552.5 K	36.2
561.8 K	29.1

CCCCCCCCn1cc[n+](C)c1.[Br-] + OC1OC[C@@H](O)[C@H](O)[C@H]1O + O
298.15 K, 101 kPa
Details	viscosity [mPa·s]
x2 = 0, x1 = 0.001831	0.965
x2 = 0, x1 = 0.003598	1.025
x2 = 0, x1 = 0.005443	1.103
x2 = 0, x1 = 0.007132	1.172

CCn1cc[nH+]c1.[Cl-] + OCC(O)CO
Details	viscosity [mPa·s]
303.15 K, 100 kPa, x1 = 0.333	65.7

CCCC[n+]1ccn(C)c1.O=S(=O)([O-])C(F)(F)F + OCCO
100 kPa
Details	viscosity [mPa·s]
298.15 K, x1 = 0.0926	15.47
298.15 K, x1 = 0.6922	33.7
303.15 K, x1 = 0.0926	12.53
303.15 K, x1 = 0.4999	21.87
303.15 K, x1 = 0.6922	27.7
308.15 K, x1 = 0.2985	13.86
308.15 K, x1 = 0.4999	18.33
308.15 K, x1 = 0.6922	23.66
308.15 K, x1 = 0.7966	29
313.15 K, x1 = 0.2985	11.67
313.15 K, x1 = 0.4999	15.58
313.15 K, x1 = 0.6922	20.18
318.15 K, x1 = 0.0926	7.45
318.15 K, x1 = 0.4999	13.4
323.15 K, x1 = 0.1936	6.92
323.15 K, x1 = 0.3912	9.9
323.15 K, x1 = 0.7966	18.19

CCCC[n+]1ccn(C)c1.[Cl-] + OC[C@H]1O[C@@](CO)(O[C@H]2O[C@H](CO)[C@@H](O)[C@H](O)[C@H]2O)[C@@H](O)[C@@H]1O + O
298.15 K, 101.3 kPa
Details	electrical conductivity [S/m]
x2 = 0, x1 = 8.71e-06	0.00583
x2 = 0, x1 = 1.208e-05	0.00794
x2 = 0, x1 = 1.485e-05	0.00965
x2 = 0, x1 = 1.707e-05	0.01101
x2 = 0, x1 = 1.937e-05	0.01241
x2 = 0, x1 = 2.164e-05	0.0138
x2 = 0, x1 = 2.397e-05	0.0152
x2 = 0, x1 = 2.6e-05	0.0164
x2 = 0, x1 = 2.824e-05	0.0177
x2 = 0, x1 = 3.029e-05	0.019
x2 = 0.003591, x1 = 1.096e-05	0.00618
x2 = 0.003591, x1 = 1.434e-05	0.00795
x2 = 0.003591, x1 = 1.771e-05	0.0097
x2 = 0.003591, x1 = 2.081e-05	0.0113
x2 = 0.003591, x1 = 2.41e-05	0.013
x2 = 0.003591, x1 = 2.709e-05	0.0145
x2 = 0.003591, x1 = 3.023e-05	0.01612
x2 = 0.003591, x1 = 3.313e-05	0.0176
x2 = 0.003591, x1 = 3.593e-05	0.019
x2 = 0.007156, x1 = 8.21e-06	0.00407
x2 = 0.007156, x1 = 1.202e-05	0.00576
x2 = 0.007156, x1 = 1.591e-05	0.00748
x2 = 0.007156, x1 = 1.939e-05	0.009
x2 = 0.007156, x1 = 2.274e-05	0.0105
x2 = 0.007156, x1 = 2.585e-05	0.0118
x2 = 0.007156, x1 = 2.894e-05	0.01315
x2 = 0.007156, x1 = 3.183e-05	0.01439
x2 = 0.007156, x1 = 3.476e-05	0.0156
x2 = 0.007156, x1 = 3.761e-05	0.0169
x2 = 0.0107, x1 = 9.71e-06	0.00386
x2 = 0.0107, x1 = 2.409e-05	0.00888
x2 = 0.0107, x1 = 3.038e-05	0.01101
x2 = 0.0107, x1 = 3.477e-05	0.0125
x2 = 0.0107, x1 = 3.967e-05	0.01408
x2 = 0.0107, x1 = 4.399e-05	0.0155
x2 = 0.0107, x1 = 4.83e-05	0.0169
x2 = 0.0107, x1 = 5.264e-05	0.01825
x2 = 0.0107, x1 = 5.673e-05	0.0195
x2 = 0.01421, x1 = 1.037e-05	0.00348
x2 = 0.01421, x1 = 1.591e-05	0.00514
x2 = 0.01421, x1 = 2.109e-05	0.00667
x2 = 0.01421, x1 = 2.647e-05	0.00823
x2 = 0.01421, x1 = 3.163e-05	0.00971
x2 = 0.01421, x1 = 3.643e-05	0.01107
x2 = 0.01421, x1 = 4.107e-05	0.01237
x2 = 0.01421, x1 = 4.582e-05	0.0137
x2 = 0.01421, x1 = 5.048e-05	0.015
x2 = 0.01421, x1 = 5.498e-05	0.01621
x2 = 0.01421, x1 = 5.983e-05	0.0175
x2 = 0.0177, x1 = 1.237e-05	0.00351
x2 = 0.0177, x1 = 1.842e-05	0.00504
x2 = 0.0177, x1 = 2.347e-05	0.00631
x2 = 0.0177, x1 = 2.887e-05	0.00764
x2 = 0.0177, x1 = 3.44e-05	0.00899
x2 = 0.0177, x1 = 4.072e-05	0.0105
x2 = 0.0177, x1 = 4.633e-05	0.0118
x2 = 0.0177, x1 = 5.265e-05	0.01333
x2 = 0.0177, x1 = 5.909e-05	0.0148
x2 = 0.0177, x1 = 6.545e-05	0.0163
x2 = 0.0177, x1 = 7.135e-05	0.0176

CCCC[n+]1ccn(C)c1.[Cl-] + OC[C@H]1O[C@H](O[C@H]2[C@H](O)[C@@H](O)C(O)O[C@@H]2CO)[C@H](O)[C@@H](O)[C@@H]1O + O
298.15 K, 101.3 kPa
Details	electrical conductivity [S/m]
x2 = 0, x1 = 8.71e-06	0.00583
x2 = 0, x1 = 1.208e-05	0.00794
x2 = 0, x1 = 1.485e-05	0.00965
x2 = 0, x1 = 1.707e-05	0.01101
x2 = 0, x1 = 1.937e-05	0.01241
x2 = 0, x1 = 2.164e-05	0.0138
x2 = 0, x1 = 2.397e-05	0.0152
x2 = 0, x1 = 2.6e-05	0.0164
x2 = 0, x1 = 2.824e-05	0.0177
x2 = 0, x1 = 3.029e-05	0.019

CCCCCCCCn1cc[n+](C)c1.[Br-] + [Cl-].[Li+] + O
298.15 K, 100 kPa
Details	viscosity [mPa·s]
x2 = 0, x3 = 0.9487	7.96
x2 = 0.00845, x3 = 0.9403	7.94
x2 = 0.0171, x3 = 0.9316	8.68
x2 = 0.02497, x3 = 0.9237	10.09
x2 = 0.03315, x3 = 0.9155	10.9
x2 = 0.04088, x3 = 0.9078	12.6

CCCC[n+]1ccn(C)c1.O=S(=O)([O-])C(F)(F)F + c1ccccc1
100 kPa
Details	viscosity [mPa·s]
298.15 K, x2 = 0	88
298.15 K, x2 = 0.122	64.3
298.15 K, x2 = 0.573	12.62
308.15 K, x2 = 0.122	42.2
308.15 K, x2 = 0.304	25.4
318.15 K, x2 = 0.467	10.64
318.15 K, x2 = 0.573	7.22
328.15 K, x2 = 0.304	13.62
328.15 K, x2 = 0.467	8.2

From the CheMixHub ionic liquid set
